Reference: patent publication US20240360146A1, “BRUTON'S TYROSINE KINASE AND MUTANT DEGRADER, COMPOSITION AND APPLICATION THEREOF” (HANGZHOU HEALZEN THERAPEUTICS CO., LTD., priority 2021, published 2024)

Biological target: T1, BTK (Homo sapiens, UniProt Q06187)
T1 construct: endogenous in cells; host or cells: Mino cells
Assay: BTK degradation activity test in Mino cells
Format: cell-based
Conditions: 16 h incubation, Western blot or Elisa
In short: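 Mino cells treated with a concentration series of compound for 16 h, then lysed; total protein by BCA. BTK quantified by Western blot or ELISA, degradation rate calculated against blank control, and DC50 fitted from the degradation curve.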

T1 sequence (Q06187 whole entry): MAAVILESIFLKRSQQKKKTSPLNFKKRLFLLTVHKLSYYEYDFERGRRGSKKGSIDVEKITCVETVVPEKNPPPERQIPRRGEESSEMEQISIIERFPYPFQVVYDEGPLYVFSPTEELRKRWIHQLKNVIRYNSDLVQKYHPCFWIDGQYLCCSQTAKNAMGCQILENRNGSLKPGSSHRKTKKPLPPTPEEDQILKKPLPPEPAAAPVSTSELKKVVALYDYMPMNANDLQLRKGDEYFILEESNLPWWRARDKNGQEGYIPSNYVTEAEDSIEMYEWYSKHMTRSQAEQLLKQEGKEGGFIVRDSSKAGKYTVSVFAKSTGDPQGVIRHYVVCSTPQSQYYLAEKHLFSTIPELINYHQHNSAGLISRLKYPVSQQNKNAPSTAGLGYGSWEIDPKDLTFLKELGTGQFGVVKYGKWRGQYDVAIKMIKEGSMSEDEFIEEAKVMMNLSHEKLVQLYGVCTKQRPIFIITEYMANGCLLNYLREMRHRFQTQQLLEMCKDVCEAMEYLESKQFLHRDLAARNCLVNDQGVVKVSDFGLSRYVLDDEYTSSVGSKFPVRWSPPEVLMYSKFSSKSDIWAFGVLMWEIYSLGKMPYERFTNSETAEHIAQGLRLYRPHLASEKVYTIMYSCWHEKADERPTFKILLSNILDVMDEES

Molecule NC(=O)c1nnc(N2CCC[C@@H](N3CCN(CC(F)(F)F)C3=O)C2)nc1Nc1ccc(N2CCC(CN3CCN(c4cc5c(cc4F)C(=O)N(C4CCC(=O)NC4=O)C5=O)CC3)CC2)cc1 (stereo partly drawn) [Compound 142, 5-((4-(4-((4-(2-(2,6-dioxopiperidin-3-yl)-6-fluoro-1,3-dioxoisoindolin-5-yl)piperazin-1-yl)methyl)piperidin-1-yl)phenyl)amino)-3-((R)-3-(2-oxo-3-(2,2,2-trifluoroethyl)imidazolin-1-yl)piperidin-1-yl)-1,2,4-triazin-6-carboxamide] has a DC50 of under 1 nM.

With CN1CCN([C@@H]2CCCN(c3nnc(C(N)=O)c(Nc4ccc(N5CCN(C[C@H]6CCN(c7ccc(N8CCC(=O)NC8=O)cc7)C6)CC5)c(F)c4)n3)C2)C1=O [Compound 151, 5-((4-(4-(((R)-1-(4-(2,4-dioxotetrahydropyrimidin-1(2H)-yl)phenyl)pyrrolidin-3-yl)methyl)piperazin-1-yl)-3-fluorophenyl)amino)-3-((R)-3-(3-methyl-2-oxoimidazolin-1-yl)piperidin-1-yl)-1,2,4-triazin-6-carboxamide] the DC50 was under 1 nM.

CN1CCN([C@@H]2CCCN(c3nnc(C(N)=O)c(Nc4ccc(N5CCN(C[C@H]6CCN(c7ccc(C(=O)N[C@H]8CCC(=O)NC8=O)nc7)C6)CC5)c(F)c4)n3)C2)C1=O [Compound 153, 5-((4-(4-(((R)-1-(6-(((S)-2,6-dioxopiperidin-3-yl)carbamoyl)pyridin-3-yl)pyrrolidin-3-yl)methyl)piperazin-1-yl)-3-fluorophenyl)amino)-3-((R)-3-(3-methyl-2-oxoimidazolin-1-yl)piperidin-1-yl)-1,2,4-triazin-6-carboxamide] was tested, and the DC50 was under 1 nM.

Molecule CN1CCN([C@@H]2CCCN(c3nnc(C(N)=O)c(Nc4ccc(N5CCN(C[C@@H]6CCN(c7ccc(C(=O)N[C@H]8CCC(=O)NC8=O)nc7)C6)CC5)c(F)c4)n3)C2)C1=O [Compound 154, 5-((4-(4-(((S)-1-(6-(((S)-2,6-dioxopiperidin-3-yl)carbamoyl)pyridin-3-yl)pyrrolidin-3-yl)methyl)piperazin-1-yl)-3-fluorophenyl)amino)-3-((R)-3-(3-methyl-2-oxoimidazolin-1-yl)piperidin-1-yl)-1,2,4-triazin-6-carboxamide] has a DC50 of under 1 nM.

CN1CCN([C@@H]2CCCN(c3nnc(C(N)=O)c(Nc4ccc(C5CCN(C[C@@H]6CCN(c7cc8c(cc7F)C(=O)N(C7CCC(=O)NC7=O)C8=O)C6)CC5)cc4)n3)C2)C1=O (stereo partly drawn) [Compound 155, 5-((4-(1-(((3S)-1-(2-(2,6-dioxopiperidin-3-yl)-6-fluoro-1,3-dioxoisoindolin-5-yl)pyrrolidin-3-yl)methyl)piperidin-4-yl)phenyl)amino)-3-((R)-3-(3-methyl-2-oxoimidazolin-1-yl)piperidin-1-yl)-1,2,4-triazin-6-carboxamide] gave a DC50 of under 1 nM.

Work on CN1CCN([C@@H]2CCCN(c3nnc(C(N)=O)c(Nc4ccc(C5CCN(C[C@H]6CCN(c7cc8c(cc7F)C(=O)N(C7CCC(=O)NC7=O)C8=O)C6)CC5)cc4)n3)C2)C1=O (stereo partly drawn) [Compound 156, 5-((4-(1-(((3R)-1-(2-(2,6-dioxopiperidin-3-yl)-6-fluoro-1,3-dioxoisoindolin-5-yl)pyrrolidin-3-yl)methyl)piperidin-4-yl)phenyl)amino)-3-((R)-3-(3-methyl-2-oxoimidazolin-1-yl)piperidin-1-yl)-1,2,4-triazin-6-carboxamide] yielded a DC50 of under 1 nM.

For CN1CCN([C@@H]2CCCN(c3nnc(C(N)=O)c(Nc4ccc(C5CCN(C[C@@H]6CCN(c7ccc8c(c7)C(=O)N(C7CCC(=O)NC7=O)C8=O)C6)CC5)c(F)c4)n3)C2)C1=O (stereo partly drawn) [Compound 157, 5-((4-(1-(((3S)-1-(2-(2,6-dioxopiperidin-3-yl)-1,3-dioxoisoindolin-5-yl)pyrrolidin-3-yl)methyl)piperidin-4-yl)-3-fluorophenyl)amino)-3-((R)-3-(3-methyl-2-oxoimidazolin-1-yl)piperidin-1-yl)-1,2,4-triazin-6-carboxamide], the DC50 was under 1 nM.

CN1CCN([C@@H]2CCCN(c3nnc(C(N)=O)c(Nc4ccc(C5CCN(C[C@H]6CCN(c7ccc8c(c7)C(=O)N(C7CCC(=O)NC7=O)C8=O)C6)CC5)c(F)c4)n3)C2)C1=O (stereo partly drawn) [Compound 158, 5-((4-(1-(((3R)-1-(2-(2,6-dioxopiperidin-3-yl)-1,3-dioxoisoindolin-5-yl)pyrrolidin-3-yl)methyl)piperidin-4-yl)-3-fluorophenyl)amino)-3-((R)-3-(3-methyl-2-oxoimidazolin-1-yl)piperidin-1-yl)-1,2,4-triazin-6-carboxamide] gave a DC50 of under 1 nM.

With CN1CCN([C@@H]2CCCN(c3nnc(C(N)=O)c(Nc4ccc(N5CCN(C[C@@H]6CCN(c7ccc8c(c7)C(=O)N(C7CCC(=O)NC7=O)C8=O)C6)CC5)c(Cl)c4)n3)C2)C1=O (stereo partly drawn) [Compound 159, 5-((3-chloro-4-(4-(((3S)-1-(2-(2,6-dioxopiperidin-3-yl)-1,3-dioxoisoindolin-5-yl)pyrrolidin-3-yl)methyl)piperazin-1-yl)phenyl)amino)-3-((R)-3-(3-methyl-2-oxoimidazolidin-1-yl)piperidin-1-yl)-1,2,4-triazin-6-carboxamide] the DC50 was under 1 nM.

For CN1CCN([C@@H]2CCCN(c3nnc(C(N)=O)c(Nc4ccc(N5CCN(C[C@H]6CCN(c7ccc8c(c7)C(=O)N(C7CCC(=O)NC7=O)C8=O)C6)CC5)c(Cl)c4)n3)C2)C1=O (stereo partly drawn) [Compound 160, 5-((3-chloro-4-(4-(((3R)-1-(2-(2,6-dioxopiperidin-3-yl)-1,3-dioxoisoindolin-5-yl)pyrrolidin-3-yl)methyl)piperazin-1-yl)phenyl)amino)-3-((R)-3-(3-methyl-2-oxoimidazolidin-1-yl)piperidin-1-yl)-1,2,4-triazin-6-carboxamide], the DC50 was under 1 nM.

Molecule CN1CCN([C@@H]2CCCN(c3nnc(C(N)=O)c(Nc4ccc(N5CCN(CC6CCN(c7ccc8c(c7)C(=O)N(C7CCC(=O)NC7=O)C8=O)CC6)CC5)c(Cl)c4)n3)C2)C1=O (stereo partly drawn) [Compound 164, 5-((3-chloro-4-(4-((1-(2-(2,6-dioxopiperidin-3-yl)-1,3-dioxoisoindolin-5-yl)piperidin-4-yl)methyl)piperazin-1-yl)phenyl)amino)-3-((R)-3-(3-methyl-2-oxoimidazolidin-1-yl)piperidin-1-yl)-1,2,4-triazin-6-carboxamide] has a DC50 of under 1 nM.

CN1CCN([C@@H]2CCCN(c3nnc(C(N)=O)c(Nc4ccc(N5CCN(CC6CCN(c7ccc8c(c7)C(=O)N(C7CCC(=O)NC7=O)C8=O)CC6)CC5)c(F)c4F)n3)C2)C1=O (stereo partly drawn) [Compound 165, 5-((4-(4-((1-(2-(2,6-dioxopiperidin-3-yl)-1,3-dioxoisoindolin-5-yl)piperidin-4-yl)methyl)piperazin-1-yl)-2,3-difluorophenyl)amino)-3-((R)-3-(3-methyl-2-oxoimidazolidin-1-yl)piperidin-1-yl)-1,2,4-triazin-6-carboxamide] gave a DC50 of under 1 nM.

CN1CCN([C@@H]2CCCN(c3nnc(C(N)=O)c(Nc4ccc(N5CCN(CC6CCN(c7cc8c(cc7F)C(=O)N(C7CCC(=O)NC7=O)C8=O)C6)CC5)c(F)c4)n3)C2)C1=O (stereo partly drawn) [Compound 169, 5-((4-(4-((1-(2-(2,6-dioxopiperidin-3-yl)-6-fluoro-1,3-dioxoisoindolin-5-yl)pyrrolidin-3-yl)methyl)piperazin-1-yl)-3-fluorophenyl)amino)-3-((R)-3-(3-methyl-2-oxoimidazolidin-1-yl)piperidin-1-yl)-1,2,4-triazin-6-carboxamide] showed a DC50 of under 1 nM.

With CN1CCN([C@@H]2CCCN(c3nnc(C(N)=O)c(Nc4ccc(N5CCN(CC6CCN(c7ccc(C(=O)NC8CCC(=O)NC8=O)cn7)CC6)CC5)c(F)c4)n3)C2)C1=O (stereo partly drawn) [Compound 175, 5-((4-(4-((1-(5-((2,6-dioxopiperidin-3-yl)carbamoyl)pyridin-2-yl)piperidin-4-yl)methyl)piperazin-1-yl)-3-fluorophenyl)amino)-3-((R)-3-(3-methyl-2-oxoimidazolidin-1-yl)piperidin-1-yl)-1,2,4-triazin-6-carboxamide] the DC50 was under 1 nM.

For CN1CCN([C@@H]2CCCN(c3nnc(C(N)=O)c(Nc4ccc(N5CCN(CC6CCN(c7ccc(C(=O)NC8CCC(=O)NC8=O)c8c7OCO8)C6)CC5)c(F)c4)n3)C2)C1=O (stereo partly drawn) [Compound 176, 5-((4-(4-((1-(7-((2,6-dioxopiperidin-3-yl)carbamoyl)benzo[d][1,3]dioxacyclopent-4-yl)pyrrolidin-3-yl)methyl)piperazin-1-yl)-3-fluorophenyl)amino)-3-((R)-3-(3-methyl-2-oxoimidazolidin-1-yl)piperidin-1-yl)-1,2,4-triazin-6-carboxamide], the DC50 was under 1 nM.

CN1CCN([C@@H]2CCCN(c3nnc(C(N)=O)c(Nc4ccc(N5CCN(CC6CCN(c7ccc(C(=O)NC8CCC(=O)NC8=O)c8[nH]cnc78)C6)CC5)c(F)c4)n3)C2)C1=O (stereo partly drawn) [Compound 178, 4-(3-((4-(4-((6-carbamoyl-3-((R)-3-(3-methyl-2-oxoimidazolidin-1-yl)piperidin-1-yl)-1,2,4-triazin-5-yl)amino)-2-fluorophenyl)piperazin-1-yl)methyl)pyrrolidin-1-yl)-N-(2,6-dioxopiperidin-3-yl)-1Hbenzimidazol-7-carboxamide] gave a DC50 of under 1 nM.

CN1CCN([C@@H]2CCCN(c3nnc(C(N)=O)c(Nc4ccc(N5CCN(CC6CCN(c7ccc(N8CCC(=O)NC8=O)c8c7OCO8)CC6)CC5)c(F)c4)n3)C2)C1=O [Compound 190, (R)-5-((4-(4-((1-(7-(2,4-dioxotetrahydropyrimidin-1(2H)-yl)benzo[d][1,3]dioxacyclopent-4-yl)piperidin-4-yl)methyl)piperazin-1-yl)-3-fluorophenyl)amino)-3-(3-(3-methyl-2-oxoimidazolidin-1-yl)piperidin-1-yl)-1,2,4-triazin-6-carboxamide] showed a DC50 of under 1 nM.

CN1CCN([C@@H]2CCCN(c3nnc(C(N)=O)c(Nc4ccc(N5CCN(CC6CCN(c7ccc(N8CCC(=O)NC8=O)c8c7OCCO8)CC6)CC5)c(F)c4)n3)C2)C1=O [Compound 193, (R)-5-((4-(4-((1-(8-(2,4-dioxotetrahydropyrimidin-1(2H)-yl)-2,3-dihydrobenzo[b][1,4]dioxan-5-yl)piperidin-4-yl)methyl)piperazin-1-yl)-3-fluorophenyl)amino)-3-(3-(3-methyl-2-oxoimidazolidin-1-yl)piperidin-1-yl)-1,2,4-triazin-6-carboxamide] was tested, and the DC50 was under 1 nM.
